Test results: patent US20250082611A1, “DOSING REGIMEN FOR AN NLRP3 INHIBITOR IN THE TREATMENT OF OSTEOARTHRITIS” (Novartis AG, priority 2021, published 2025)
Entries after “also recorded” stand apart in the source; their conditions may differ. Like-named read-outs stand apart in the source and are kept apart here.

Tests used:
CYP3A = assay: In vitro metabolism studies, CYP3A induction and substrate; assay type: in vitro ADME
Source text: Therefore, investigators, at their discretion, may administer concomitant medications known to be metabolized by CYP3A4/5. Patients receiving such medications may require dose titration or increase of the concomitant drug. […] Investigators may, at their discretion, co-administer known inhibitors of CYP3A, but their duration should be kept as short as possible, and patients must be closely monitored.

[1] = in vivo
Procedure: (§1) The safety of the treatment period is supported by 13-week GLP toxicology studies in rat and cynomolgus monkey. […] Safety margins for COMPOUND IA dosed at 25 mg b.i.d. based on 13-week GLP toxicology studies: […]

[2] = First-in-human study: plasma pharmacokinetics in healthy subjects; assay type: in vivo; details: for median lag time: fed; for half-life: read-out: mean t1/2 (converted); for Tmax: read-out: median tmax; for CL renal: urine, read-out: Renal clearance (converted); for dose proportionality of exposure: single doses
Source text: (§2) The study design comprised of 4 parts: single ascending dose (SAD; Part A), relative bioavailability of tablet formulations (Part B), multiple ascending dose (MAD; Part C), and relative bioavailability and food effect (Part D) (FIG. 2; RF=Reference Formulation (crystalline suspension); T2=Test Formulation 2 (crystalline tablet); T3=Test Formulation 3 (spray-dried dispersion suspension); T4=Test Formulation 4 (encapsulated crystalline tablet)). In each group of Parts A and C, 8 subjects were randomized in a 3:1 ratio to receive Compound IA (6 subjects) or matching placebo (2 subjects).
(§3) For Part A, eight cohorts of eight eligible subjects were enrolled. Each subject received a single oral dose of Compound IA (3, 10, 30, 100, 300 mg of crystalline suspension and 100, 300, 600 mg of spray-dried dispersion (SDD) under fasted conditions. As this was a FIH study, two sentinel subjects were dosed first, at least 24 hours before the rest of the cohort was dosed, to assure maximum safety. Part B was skipped because the data from Part A provided for an adequate comparison of crystalline and SDD formulations.
(§4) For part C, eligible subjects were enrolled in six different cohorts. […] Subjects were dosed in Part C following review available safety, tolerability and PK data from preceding groups in Part A.
[…] […] Based on these doses, subjects were randomly assigned to 1 of 6 treatment sequences (1 subject per sequence) prepared using Williams design.
In single-dose part, blood samples were collected for determining the concentrations of Compound IA at the following time points relative to dosing on Day 1: at pre-dose and 0.25, 0.5, 0.75, 1, 1.5, 2, 3, 4, 6, 8, 12, 24, 36, and 48 hours post-dose, and at the follow-up visit. In multiple-dose part, relative to dosing on Days 1 and 14, samples were collected at pre-dose and 0.25, 0.5, 0.75, 1, 1.5, 2, 3, 4, 6, 8, and 12 hours post-dose; on Days 2, 4, 7, 9, and 11: at pre-dose; after the last dose on Day 14: at 24 and 36 hours (Day 15), and 48 hours (Day 16) post-dose; and at the follow-up visit.
All data were summarized using descriptive statistics and were listed and summarized in tabular and/or graphical form. Descriptive statistics for all relevant PK parameters included: n, arithmetic mean, standard deviation (SD), coefficient of variation (CV %), minimum, median, maximum, geometric mean, and geometric CV %. For tmax only median, minimum, and maximum are presented. PK parameters were calculated using noncompartmental methods using software Phoenix Version 8.1. Concentrations below the lower limit of quantification (LLOQ) were treated as zero in summary statistics for concentration data only. The linear trapezoidal rule was used for AUC calculation. Regression analysis of the terminal plasma elimination phase for the determination of t1/2 included at least 3 data points after Cmax. Parameters with an adjusted r^2 below 0.80 were flagged but included in the descriptive statistics. The parameters AUC0-inf, % AUCextra, CL/F, and VZ/F with an % AUCextra above 20% were excluded from the descriptive statistics.
In Part A, dose proportionality was explored using a regression power model relating logarithmically (log)-transformed Cmax, AUC0-last, and AUC0-inf to the log-transformed dose level. Point estimates for the intercept and the slope and corresponding 90% confidence intervals (CIs) for the slope were calculated. For Part C, dose proportionality was not explored. In Part D, the relative bioavailability of the Test Formulation (crystalline tablet, SDD and crystalline tablet) versus the Reference Formulation (crystalline suspension), as well as the effect of food, was explored using an analysis of variance (ANOVA) model on the PK data.
For the following treatments, the least-squares geometric mean ratios were presented together with 90% CIs: 100 mg Compound IA tablet fasted over 100 mg Compound IA suspension fasted, and 100 mg Compound IA tablet fed over 100 mg Compound IA tablet fasted.

in vivo = details: cynomolgus monkey
Procedure: as §1

[3] = First-in-human study: safety and tolerability in healthy subjects; assay type: in vivo
Source text: as §2, §3, §4
Safety assessments in all parts of the study included adverse event (AE) reporting using the Medical Dictionary for Regulatory Activities (version 22.1), clinical laboratory tests (biochemistry, hematology, and urinalysis), vital signs, electrocardiograms (ECGs), physical examination and skin biopsy (as applicable).

[4] = single dose 100 mg, crystalline suspension

In the case of CC(C)(O)c1ncc([S@](N)(=O)=NC(=O)Nc2c3c(cc4c2CCC4)CCC3)s1 [Compound IA, (R)-N′-((1,2,3,5,6,7-hexahydro-s-indacen-4-yl)carbamoyl)-2-(2-hydroxypropan-2-yl) thiazole-5-sulfonimidamide], the CYP3A substrate status (CYP3A) is reported as “substrate of CYP3A”, the “induction of metabolism of CYP3A substrates” value (CYP3A) is reported as “might have the potential to induce” and the “Exposure multiples RAT NOAEL based on AUC0-24 h” value [1] is reported as 14. The “Exposure multiples RAT NOAEL based on Cmax” value [1] was 34, the “Exposure multiples RAT NOAEL based on AUC0-24 h” value ([1]; 25 mg) was 7 and the “Exposure multiples RAT NOAEL based on Cmax” value ([1]; 25 mg) was 17. For the same compound, the “increase of AUC, fed (high-fat, high-calorie meal) vs fasted” value ([2]; 100 mg crystalline tablet) was 1.49 fold, the “increase of Cmax, fed (high-fat, high-calorie meal) vs fasted” value ([2]; 100 mg crystalline tablet) was 2.05 fold and the “Cmax lower for crystalline tablet than suspension” value ([2]; 100 mg, fasted) was 78%. For the same compound, the “multiple dose PK” value ([2]; after 2 weeks, multiple doses and formulations) was “linear”, the “absorption of crystalline material” value ([2]; doses≥100 mg) was “solubility-limited absorption” and the median lag time ([2]; encapsulated crystalline tablets 25 mg bid) was 0.75 h. The median lag time ([2]; encapsulated crystalline tablets 50 mg bid) was 0.25 h, the “AUCs of subjects with heterogenous CYP2C9 genotypes versus normal CYP2C9 activity” value ([2]; human, in vivo) was “higher” and the “oral clearance relative to human liver blood flow” value ([2]; human, in vivo, po) was ≤ 2%. For the same compound, the “renal elimination as share of oral dose” value ([2]; human, in vivo, po) was “less than 0.8%”, the half-life ([2]; human, plasma, oral, 100 mg, suspension formulation) was 1060 min and the half-life ([2]; human, plasma, oral, across QD and BID dose levels) was 590 to 972 min. It also gave a Vd/F ([2]; human, plasma, oral, steady state, across QD and BID dose levels, read-out: Vss/F) of 12.6 to 23.3 L, a Tmax ([2]; human, plasma, po, single oral doses 30-600 mg, fasted) of 1.5 to 3 h and a Tmax ([2]; human, plasma, po, single oral doses of suspensions, fasted, across dose levels) of 0.76 to 3 h. The CL renal ([2]; human, oral, Day 1) was ~0.0667 mL/min, the CL renal ([2]; human, oral, steady state (Day 14)) was ~0.133 mL/min and the “drug accumulation in reaching steady state” value ([2]; once daily dosing) was “about 1.2 fold”. The “increase of AUC0-last, fed compared to fasted” value [2, 4] was 1.49 fold, the “increase of Cmax, fed compared to fasted” value [2, 4] was 2.05 fold and the “dose proportionality of exposure” value ([2]; SDD suspension 100-600 mg, fasted) was “dose-proportionally; also recorded: dose-proportional increase”. The “dose proportionality of exposure” value ([2]; crystalline suspension 3-300 mg, fasted) was “less than dose-proportional”, the median tmax ([2]; single oral doses of suspensions, fasted, across dose levels) was 45.6 to 180 min and the CLss/F ([2]; steady state, across QD and BID dose levels) was ~1.0 L/h. The “drug accumulation in reaching steady state” value ([2]; twice daily dosing) was 2 fold, the “Exposure multiples MONKEY NOAEL based on AUC0-24 h” value (in vivo) was 49 and the “Exposure multiples MONKEY NOAEL based on Cmax” value (in vivo) was 66. For the same compound, the NOAEL at 13 weeks (in vivo) was 150 mg/kg/day, the “Exposure multiples MONKEY NOAEL based on AUC0-24 h” value (in vivo; 25 mg) was 61 and the “Exposure multiples MONKEY NOAEL based on Cmax” value (in vivo; 25 mg) was 82. The “subjects with TEAEs considered related to study drug” value ([3]; 21/94 who received Compound IA) was 22%, the “subjects reporting treatment emergent adverse events (TEAEs)” value ([3]; Compound IA arm, 66/94 subjects) was 70% and the skin rash ([3]; dosed once daily with 30, 100, and 200 mg) was “skin rashes have been observed in some participants”. For the same compound, the “dose relation of maculopapular and/or pruritic skin rashes” value ([3]; human, in vivo) was “most frequently reported at the higher multiple dose levels”, the “intensity of skin rash/pruritus TEAEs” value ([3]; human, in vivo) was “mild to moderate” and the “subjects with mild, non-clinically significant decrease in neutrophil and leukocyte counts” value ([3]; human, in vivo) was 27 subjects. The “vital signs, 12-lead ECG, 24-hour Holter monitoring, physical examination” value ([3]; human, in vivo) was “No other clinically relevant findings”, the “subjects with skin rash and/or pruritus” value ([3]; multiple dose 30 mg QD) was 2 n and the “subjects with skin rash and/or pruritus” value ([3]; multiple dose 50 mg BID) was 3 n. For the same compound, the “subjects with skin rash and/or pruritus” value ([3]; multiple dose 100 mg QD) was 3 n, the “subjects with skin rash and/or pruritus” value ([3]; multiple dose 200 mg QD) was 2 n and the “neutrophil and leukocyte counts” value ([3]; non-clinically significant, occasionally noted) was “Mild decreases”. The “subjects with TEAEs of maculopapular skin rash and/or pruritus (adverse events of special interest)” value ([3]; of 122 enrolled, all received Compound IA) was 12 subjects, the tolerability ([3]; single and multiple oral doses, healthy subjects) was “generally well tolerated” and the “subjects with skin rash and/or pruritus” value ([3]; single dose 100 mg) was 1 n. For the same compound, the “subjects with skin rash and/or pruritus” value ([3]; single dose 600 mg) was 1 n and the “deaths or serious adverse events” value ([3]; whole study) was “No deaths or serious adverse events (SAEs) were reported”.
